Source: paper PMC6173696, “Structural properties of a haemophore facilitate targeted elimination of the pathogen Porphyromonas gingivalis” (Nature Communications, 2018)

Tests used:
[1] = system: P. gingivalis wild-type W83; assay: P8 growth inhibition under iron restriction (100 µM dipyridyl); type: cell-based, Porphyromonas gingivalis; conditions: P8 at 1 µM (below the MIC)
Excerpt: Fig. 5 A prototype DPIX-conjugated antibiotic binds HusA and inhibits P. gingivalis. a The chemical structure of the deuteroporphyrin-lysine-metronidazole adduct, P8. b NMR signal intensity changes (black) and ^1H^N CSPs (red/green) for HusA upon addition of P8 (measured from ^15N-HSQC spectra shown in Supplementary Figure 21). c In silico docking of P8 to the energy minimized structure of HusA (conformer set 1), with residues experiencing NMR signal loss (orange) or CSPs (red/green) mapped to the structure (colouring as described in Fig. 2d). d Scaled and corrected fluorescence at 335 nm during titration of 1 μM of HusA with increasing concentrations of P8, haemin or DPIX. e Comparison of P8 inhibitory effect towards P. gingivalis wild-type W83 and husA mutants using checkerboard analysis. Serial dilutions of antibiotics (horizontal axis) were applied to a 96-well plate with different P. gingivalis strains (vertical axis). Serial dilutions of DPIX were also supplemented into wild-type W83 group to evaluate the competitive effect against P8. Absorption at OD600 of each well was recorded after 24 h of incubation. The OD600 of each strain grown in the absence of antibiotics was defined as 100% growth, which was applied to normalise the reading collected from other wells. […] Recovered bacteria were determined by CFU count. […]

[2] = system: P. gingivalis wild-type W83; assay: Checkerboard / broth micro-dilution assay (MIC, MBC), wild-type W83; type: cell-based, Porphyromonas gingivalis
Excerpt: Fig. 5 A prototype DPIX-conjugated antibiotic binds HusA and inhibits P. gingivalis. a The chemical structure of the deuteroporphyrin-lysine-metronidazole adduct, P8. b NMR signal intensity changes (black) and ^1H^N CSPs (red/green) for HusA upon addition of P8 (measured from ^15N-HSQC spectra shown in Supplementary Figure 21). c In silico docking of P8 to the energy minimized structure of HusA (conformer set 1), with residues experiencing NMR signal loss (orange) or CSPs (red/green) mapped to the structure (colouring as described in Fig. 2d). d Scaled and corrected fluorescence at 335 nm during titration of 1 μM of HusA with increasing concentrations of P8, haemin or DPIX. e Comparison of P8 inhibitory effect towards P. gingivalis wild-type W83 and husA mutants using checkerboard analysis. Serial dilutions of antibiotics (horizontal axis) were applied to a 96-well plate with different P. gingivalis strains (vertical axis). Serial dilutions of DPIX were also supplemented into wild-type W83 group to evaluate the competitive effect against P8. Absorption at OD600 of each well was recorded after 24 h of incubation. The OD600 of each strain grown in the absence of antibiotics was defined as 100% growth, which was applied to normalise the reading collected from other wells. The normalised percentage of each well was plotted in the checkerboard. Metronidazole alone and in combination with PPIX or DPIX was applied as control. f Intracellular killing assay of P8 antibiotics. Gingival H413 epithelial cells were infected by P. gingivalis W83 and then treated with P8 at various concentrations. Recovered bacteria were determined by CFU count. Metronidazole and DMSO were used as control. Three independent experiments with triplicate assays were conducted. […]

p22HBP = target: T1, p22HBP (Mus musculus, UniProt Q9R257); assay: Acid-alkaline transition of UV-vis spectra, haemin bound to p22HBP; type: physicochemical; conditions: haemin bound to murine p22HBP
T1 sequence (Q9R257 1-190): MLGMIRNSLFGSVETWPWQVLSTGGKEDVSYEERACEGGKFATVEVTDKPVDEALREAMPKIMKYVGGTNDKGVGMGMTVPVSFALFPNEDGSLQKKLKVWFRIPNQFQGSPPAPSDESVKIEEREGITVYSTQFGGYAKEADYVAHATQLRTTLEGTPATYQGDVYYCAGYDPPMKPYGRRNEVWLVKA
Description: (§1) Supplementary Figure 16. Acid-alkaline transition in UV-vis spectra of various haem binding proteins. (Top) UV-visible spectra (units of wavelength are nm) used to generate the pH titration curves shown in Figure 2h and in the bottom panel. (Bottom) Acid-alkaline titration of 5 µM haemin in presence of 7 µM IsdH, 5 µM IsdB, 7 µM IsdH(Y642A) and 7 µM p22HBP. All proteins are in holo form. See Fig 2h legend for buffer conditions. Absorbance A600–A650 values are plotted except for IsdH and IsdB, for which A630–A600 is plotted (to avoid negative values). […]

IsdH(Y642A) = target: T2, IsdH(Y642A) (Staphylococcus aureus, UniProt Q931P4, Y642A); type: physicochemical; conditions: haemin bound to IsdH (Y642A)
T2 sequence (Q931P4 41-891 Y642A): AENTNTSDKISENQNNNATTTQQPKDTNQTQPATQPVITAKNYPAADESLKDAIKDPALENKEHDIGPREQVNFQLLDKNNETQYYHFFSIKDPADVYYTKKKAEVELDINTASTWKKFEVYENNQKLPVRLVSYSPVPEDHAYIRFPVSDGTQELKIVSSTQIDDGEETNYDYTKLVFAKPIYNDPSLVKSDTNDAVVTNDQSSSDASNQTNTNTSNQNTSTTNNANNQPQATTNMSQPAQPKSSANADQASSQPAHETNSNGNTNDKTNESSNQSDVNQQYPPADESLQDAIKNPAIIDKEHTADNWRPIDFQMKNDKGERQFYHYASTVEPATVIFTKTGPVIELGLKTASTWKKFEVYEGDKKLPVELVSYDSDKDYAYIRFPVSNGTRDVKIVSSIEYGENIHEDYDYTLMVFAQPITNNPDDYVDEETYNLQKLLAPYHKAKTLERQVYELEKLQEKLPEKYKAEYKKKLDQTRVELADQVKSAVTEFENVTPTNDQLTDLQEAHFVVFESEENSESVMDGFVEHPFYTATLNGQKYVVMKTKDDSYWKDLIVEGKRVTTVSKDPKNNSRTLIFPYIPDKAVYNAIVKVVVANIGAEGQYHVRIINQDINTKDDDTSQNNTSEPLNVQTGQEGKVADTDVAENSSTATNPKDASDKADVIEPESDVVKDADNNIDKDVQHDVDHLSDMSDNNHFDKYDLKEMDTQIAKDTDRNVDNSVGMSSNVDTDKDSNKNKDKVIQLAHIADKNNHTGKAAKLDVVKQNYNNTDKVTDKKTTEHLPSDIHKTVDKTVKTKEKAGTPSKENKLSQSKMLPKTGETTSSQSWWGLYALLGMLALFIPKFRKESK
Description: as §1

Row | Compound | susceptibility of W83 under iron restriction [1] | MBC ([2]; Porphyromonas gingivalis, no growth recovery on eTSB agar plate, read-out: minimal bactericidal concentration) [µM] | MIC ([2]; Porphyromonas gingivalis, planktonic W83, 24 h, anaerobic, read-out: minimal inhibitory concentration) [µM] | killing of extracellular P. gingivalis ([2]; planktonic W83) | pKa of acid-alkaline transition (p22HBP) | pKa of acid-alkaline transition (IsdH(Y642A))
1 | CC1=Cc2cc3[nH]c(cc4nc(cc5[nH]c(cc1n2)cc5C)C(C)=C4CCC(=O)N[C@@H](CCCCNC(=O)OC(C)(C)C)C(=O)NCCn1c([N+](=O)[O-])cnc1C)c(CCC(=O)O)c3C [P8] | susceptible | 10 to 20 | 1.25 to 2.5 | more effective than metronidazole | – | –
2 | C=CC1=C(C)c2cc3[nH]c(cc4nc(cc5[nH]c(cc1n2)c(C)c5CCC(=O)O)C(CCC(=O)O)=C4C)c(C)c3C=C.[Fe+3] [haemin] | – | – | – | – | 6.2 | 5.9
